Experimental data taken from the supplement of paper PMC11451515.

System: SEM cells
Assay: cell viability relative to DMSO control; higher = less cytotoxic
Settings: 48 h
How it was run: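 Before seeding, each leukemia line was adapted for at least four passages in each medium. NOMO1 or SEM cells (500 cells/well) and P12-Ichikawa cells (1000 cells/well) went into 1536-well plates at 5 μl, then received library compounds in DMSO by pin dosing across 11 threefold concentrations, 47 μM to 0.79 nM. Readout was CellTiter-Glo One luminescence after 48 h at 37°C, and viability is given as a per-plate percentage of DMSO wells, with cell-free wells as background.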

[1] = HPLM + 10% dialyzed FBS, 0.000781 µM
[2] = HPLM + 10% dialyzed FBS, 0.00234 µM
[3] = HPLM + 10% dialyzed FBS, 0.00702 µM
[4] = HPLM + 10% dialyzed FBS, 0.0211 µM
[5] = HPLM + 10% dialyzed FBS, 0.0632 µM
[6] = HPLM + 10% dialyzed FBS, 0.19 µM
[7] = HPLM + 10% dialyzed FBS, 0.569 µM
[8] = HPLM + 10% dialyzed FBS, 1.71 µM
[9] = HPLM + 10% dialyzed FBS, 5.12 µM
[10] = HPLM + 10% dialyzed FBS, 15.4 µM
[11] = HPLM + 10% dialyzed FBS, 46.1 µM
[12] = RPMI 5 mM glucose + 10% dialyzed FBS, 0.000781 µM
[13] = RPMI 5 mM glucose + 10% dialyzed FBS, 0.00234 µM
[14] = RPMI 5 mM glucose + 10% dialyzed FBS, 0.00702 µM
[15] = RPMI 5 mM glucose + 10% dialyzed FBS, 0.0211 µM
[16] = RPMI 5 mM glucose + 10% dialyzed FBS, 0.0632 µM
[17] = RPMI 5 mM glucose + 10% dialyzed FBS, 0.19 µM
[18] = RPMI 5 mM glucose + 10% dialyzed FBS, 0.569 µM
[19] = RPMI 5 mM glucose + 10% dialyzed FBS, 1.71 µM
[20] = RPMI 5 mM glucose + 10% dialyzed FBS, 5.12 µM
[21] = RPMI 5 mM glucose + 10% dialyzed FBS, 15.4 µM
[22] = RPMI 5 mM glucose + 10% dialyzed FBS, 46.1 µM
[23] = RPMI 5 mM glucose + 10% FBS, 0.000781 µM
[24] = RPMI 5 mM glucose + 10% FBS, 0.00234 µM
[25] = RPMI 5 mM glucose + 10% FBS, 0.00702 µM
[26] = RPMI 5 mM glucose + 10% FBS, 0.0211 µM
[27] = RPMI 5 mM glucose + 10% FBS, 0.0632 µM
[28] = RPMI 5 mM glucose + 10% FBS, 0.19 µM
[29] = RPMI 5 mM glucose + 10% FBS, 0.569 µM
[30] = RPMI 5 mM glucose + 10% FBS, 1.71 µM
[31] = RPMI 5 mM glucose + 10% FBS, 5.12 µM
[32] = RPMI 5 mM glucose + 10% FBS, 15.4 µM
[33] = RPMI 5 mM glucose + 10% FBS, 46.1 µM

COC1=CC=C2CN(C)CC[C@@]34\C=C/[C@H](O)C[C@@H]3OC1=C24
cell viability [1]: 119%
cell viability [2]: 113%
cell viability [3]: 115%
cell viability [4]: 27%
cell viability [5]: 117%
cell viability [6]: 111%
cell viability [7]: 114%
cell viability [8]: 126%
cell viability [9]: 103%
cell viability [10]: 119%
cell viability [11]: 103%
cell viability [12]: 108%
cell viability [13]: 111%
cell viability [14]: 126%
cell viability [15]: 25.3%
cell viability [16]: 114%
cell viability [17]: 125%
cell viability [18]: 104%
cell viability [19]: 107%
cell viability [20]: 96.3%
cell viability [21]: 100%
cell viability [22]: 99.3%

Cc1ncc([N+](=O)[O-])n1CC(C)O (stereo not drawn)
cell viability [1]: 60.5%
cell viability [2]: 75.1%
cell viability [3]: 69.3%
cell viability [4]: 75.5%
cell viability [5]: 57.6%
cell viability [6]: 71.4%
cell viability [7]: 91.4%
cell viability [8]: 88.1%
cell viability [9]: 81.6%
cell viability [10]: 82.8%
cell viability [11]: 13.3%
cell viability [23]: 78.9%
cell viability [24]: 99.3%
cell viability [25]: 89.4%
cell viability [26]: 99.8%
cell viability [27]: 64.6%
cell viability [28]: 97.8%
cell viability [29]: 102%
cell viability [30]: 110%
cell viability [31]: 96.2%
cell viability [32]: 101%
cell viability [33]: 14.8%
cell viability [12]: 84.2%
cell viability [13]: 101%
cell viability [14]: 98.4%
cell viability [15]: 99.3%
cell viability [16]: 84.6%
cell viability [17]: 104%
cell viability [18]: 118%
cell viability [19]: 119%
cell viability [20]: 110%
cell viability [21]: 99.6%
cell viability [22]: 14%

O=C1NC(=O)/C(=C/c2ccc(-c3ccc(F)cc3O)o2)S1
cell viability [1]: 127%
cell viability [2]: 118%
cell viability [3]: 110%
cell viability [4]: 122%
cell viability [5]: 123%
cell viability [6]: 111%
cell viability [7]: 111%
cell viability [8]: 102%
cell viability [9]: 124%
cell viability [10]: 94.1%
cell viability [11]: 87.1%
cell viability [12]: 114%
cell viability [13]: 129%
cell viability [14]: 120%
cell viability [15]: 122%
cell viability [16]: 112%
cell viability [17]: 121%
cell viability [18]: 111%
cell viability [19]: 84.6%
cell viability [20]: 87.3%
cell viability [21]: 98.6%
cell viability [22]: 74.8%

OC1=CC2=C(C(=C1)O)C(=O)\C(=C(/O2)C3=CC(=C(O)C=C3)O)O
cell viability [1]: 89.1%
cell viability [2]: 84.2%
cell viability [3]: 93.4%
cell viability [4]: 99.4%
cell viability [5]: 98.2%
cell viability [6]: 94.4%
cell viability [7]: 97.4%
cell viability [8]: 110%
cell viability [9]: 111%
cell viability [10]: 94.8%
cell viability [11]: 75.1%
cell viability [23]: 79.7%
cell viability [24]: 97.7%
cell viability [25]: 106%
cell viability [26]: 96.1%
cell viability [27]: 99.6%
cell viability [28]: 109%
cell viability [29]: 106%
cell viability [30]: 105%
cell viability [31]: 108%
cell viability [32]: 102%
cell viability [33]: 71.5%
cell viability [12]: 83.6%
cell viability [13]: 85.2%
cell viability [14]: 92.1%
cell viability [15]: 88.3%
cell viability [16]: 111%
cell viability [17]: 104%
cell viability [18]: 115%
cell viability [19]: 101%
cell viability [20]: 92.6%
cell viability [21]: 104%
cell viability [22]: 69.8%

CN(C)C(=O)C(CCN1CCC(O)(c2ccc(Cl)cc2)CC1)(c1ccccc1)c1ccccc1
cell viability [1]: 68.1%
cell viability [2]: 109%
cell viability [3]: 117%
cell viability [4]: 130%
cell viability [5]: 127%
cell viability [6]: 121%
cell viability [7]: 122%
cell viability [8]: 117%
cell viability [9]: 108%
cell viability [10]: 86.6%
cell viability [11]: 23.5%
cell viability [23]: 57.8%
cell viability [24]: 108%
cell viability [25]: 141%
cell viability [26]: 127%
cell viability [27]: 114%
cell viability [28]: 127%
cell viability [29]: 140%
cell viability [30]: 117%
cell viability [31]: 110%
cell viability [32]: 75.5%
cell viability [33]: 10.3%

CC(C)Cc1ccc(C(C)C(=O)O)cc1 (stereo not drawn)
cell viability [1]: 68.7%
cell viability [2]: 84.7%
cell viability [3]: 80.1%
cell viability [4]: 78.6%
cell viability [5]: 84.9%
cell viability [6]: 90.7%
cell viability [7]: 82.2%
cell viability [8]: 78.3%
cell viability [9]: 71.3%
cell viability [10]: 85.6%
cell viability [11]: 26.4%
cell viability [23]: 90.1%
cell viability [24]: 69.4%
cell viability [25]: 80.9%
cell viability [26]: 91.3%
cell viability [27]: 89.4%
cell viability [28]: 81.9%
cell viability [29]: 98.8%
cell viability [30]: 87%
cell viability [31]: 95.4%
cell viability [32]: 77.2%
cell viability [33]: 22.8%
cell viability [12]: 93.5%
cell viability [13]: 84.4%
cell viability [14]: 89.5%
cell viability [15]: 90.9%
cell viability [16]: 87.5%
cell viability [17]: 98.3%
cell viability [18]: 99.5%
cell viability [19]: 98.6%
cell viability [20]: 100%
cell viability [21]: 77.5%
cell viability [22]: 35.7%

CCOC(=O)/C=C/[C@H](C[C@@H]1CCNC1=O)NC(=O)[C@@H](CC(=O)[C@@H](NC(=O)c1cc(C)on1)C(C)C)Cc1ccc(F)cc1
cell viability [1]: 90.8%
cell viability [2]: 101%
cell viability [3]: 103%
cell viability [4]: 90.4%
cell viability [5]: 111%
cell viability [6]: 116%
cell viability [7]: 110%
cell viability [8]: 116%
cell viability [9]: 115%
cell viability [10]: 113%
cell viability [11]: 105%
cell viability [23]: 115%
cell viability [24]: 121%
cell viability [25]: 118%
cell viability [26]: 79.8%
cell viability [27]: 127%
cell viability [28]: 116%
cell viability [29]: 123%
cell viability [30]: 127%
cell viability [31]: 115%
cell viability [32]: 97.3%
cell viability [33]: 104%
cell viability [12]: 100%
cell viability [13]: 120%
cell viability [14]: 119%
cell viability [15]: 82.5%
cell viability [16]: 136%
cell viability [17]: 133%
cell viability [18]: 128%
cell viability [19]: 127%
cell viability [20]: 129%
cell viability [21]: 132%
cell viability [22]: 108%

Nc1ncnc2c1nc(Cl)n2[C@@H]1O[C@H](CO)[C@@H](O)[C@H]1O
cell viability [1]: 118%
cell viability [2]: 128%
cell viability [3]: 123%
cell viability [4]: 125%
cell viability [5]: 119%
cell viability [6]: 128%
cell viability [7]: 115%
cell viability [8]: 128%
cell viability [9]: 97.3%
cell viability [10]: 41.6%
cell viability [11]: 7.3%
cell viability [23]: 120%
cell viability [24]: 130%
cell viability [25]: 123%
cell viability [26]: 135%
cell viability [27]: 136%
cell viability [28]: 135%
cell viability [29]: 119%
cell viability [30]: 130%
cell viability [31]: 109%
cell viability [32]: 55%
cell viability [33]: 8.37%

CC(NCCc1ccc(O)cc1)C(O)c1ccc(O)cc1 (stereo not drawn)
cell viability [1]: 84.4%
cell viability [2]: 80.5%
cell viability [3]: 73%
cell viability [4]: 89%
cell viability [5]: 86.1%
cell viability [6]: 84.1%
cell viability [7]: 74.6%
cell viability [8]: 98.7%
cell viability [9]: 90.7%
cell viability [10]: 105%
cell viability [11]: 84.8%
cell viability [23]: 106%
cell viability [24]: 110%
cell viability [25]: 109%
cell viability [26]: 111%
cell viability [27]: 97.5%
cell viability [28]: 103%
cell viability [29]: 92.5%
cell viability [30]: 107%
cell viability [31]: 98.2%
cell viability [32]: 103%
cell viability [33]: 99.4%
cell viability [12]: 133%
cell viability [13]: 119%
cell viability [14]: 122%
cell viability [15]: 118%
cell viability [16]: 117%
cell viability [17]: 110%
cell viability [18]: 90.6%
cell viability [19]: 112%
cell viability [20]: 105%
cell viability [21]: 111%
cell viability [22]: 81.9%
